Test [1] deals with human MDM. As to the kind of experiment: HpbE- or Hpb GDH-treated human MDM with inhibitors or neutralizing antibodies. The format is cell-based. The source says: In order to identify immuneregulatory proteins present in HpbE, the inventors fractionated the extract by size exclusion chromatography and identified active fractions (8-11) based on the capacity to induce the COX metabolite TXB2 as well as IL-10 (FIGS. 4C and 4D). The inventors then identified proteins present in active and non-active fractions by mass spectrometry, thus highlighting Hpb glutamate dehydrogenase (GDH) as a major immuneregulatory candidate, which was uniquely present in active fractions of HpbE (summarized in FIG. 4E). In addition, an inhibitor of GDH (Bithionol), which is also used as an anti-helminthic, reduced the HpbE-triggered induction of PGE2 and IL-10 (FIG. 4F).
As a new tool for studying the uptake, localization and function of Hpb GDH in vivo and in target cells in vitro, we generated monoclonal antibodies (mABs) specific for Hpb GDH (i.e. not cross-reactive with mammalian (human/mouse) GDH) (FIG. 5). Clone 4F8 was selected as the best candidate for further sub cloning and for testing in neutralization experiments. […]
As HIF-1α is positively regulated by the p38 MAPK, the inventors studied the involvement of p38 signaling in the induction of type 2-suppressive mediators by HpbE. In human MDM, p38 was phosphorylated upon treatment with HpbE, correlating with the induction of COX-2 (FIG. 11A) and a p38 inhibitor (VX-702) abrogated the induction of IL-10, IL-1R and PGE2-synthetic enzymes (PTGS2 and PTGES) (FIG. 11B to D). In line with HIF-1α dependent regulation in murine BMDM, a pharmacological inhibitor of HIF-1α (acriflavine) attenuated the HpbE-induced expression of IL-10, IL-1β and COX pathway enzymes in human MDM (FIG. 11B to D). However, p38 and HIF-1α were not responsible for the modulation of the 5-LOX pathway (FIG. 11D).
(§1) Monocyte-derived macrophages (MDM) or bone marrow derived macrophages (BMDM) were generated by culture in the presence of human or murine recombinant GM-CSF (10 ng/ml) (Miltenyi Biotech) and human recombinant TGF-β1 (2 ng/ml) (Peprotech) as previously described (Esser-von Bieren et al. (2013), PLoS Pathog., 9:e1003771; Dietz et al. (2016), J. Allergy Clin Immunol, 139(4):1343-1354.e6). On day 6, cells were harvested and used for further experiments.
(§2) Eicosanoids were quantified by liquid chromatography tandem mass spectrometry (LC-MS/MS) similar to a previously published method (Henkel et al. (2018); Allergy, doi:10.1111/a11.13700). Cytokines were quantified using commercially available multiplex assays or ELISA kits according to the manufacturer's instructions.

The subject of test [2] is human granulocytes. Kind of test: Granulocyte chemotaxis (trans-well) towards nasal polyp secretions. The format is cell-based. Particulars: for reduction of granulocyte chemotaxis in response to nasal polyp secretions: cells from AERD patients (n=6) and healthy controls (n=3), fluticasone propionate 1 μM, Montelukast 10 μM. The protocol:
Granulocyte recruitment (induced by chemokines or nasal polyp secretions) was assessed with or without pre-treatment with Hpb proteins by using trans-well assays. Migrated granulocytes were enumerated microscopically and by flow cytometry.
PMN were resuspended to a concentration of 1×10^6 cells/ml in the presence of 100 ng/ml human GM-CSF (Miltenyi Biotech) and overnight stimulated with 10 μg/ml HpbE. When mentioned, PMN were pre-treated with 1 μM fluticasone propionate (Sigma-Aldrich), 10 μM montelukast (Cayman Chemical) or conditioned media from MDM stimulated overnight with 10 μg/ml Hpb extract+/−100 μM Indomethacin for 1 hour. PMN migration in response to nasal polyp secretions or a chemokine cocktail of 2 ng/ml RANTES, 20 ng/ml IL-8 (Miltenyi Biotech) and 2 ng/ml LTB4 (Cayman Chemical) was tested. Chemoattractants were placed in the lower wells of a chemotaxis plate (3 μm pore size; Corning). After mounting the transwell unit, […] PMN were added to the top of each well and migration was allowed for 3 hours at 37° C., 5% CO2. The number of cells migrating to the lower well was counted microscopically. In some experiments, manual counting was validated by flow cytometry.

The test system of test [3] is human granulocytes (PMN). Kind of test: Mediator production by human granulocytes (PMN). The class given is cell-based. The protocol:
(§3) Human polymorphonuclear leukocytes (PMN) or peripheral blood mononuclear cells (PBMC) were isolated from the peripheral blood from healthy controls or patients suffering from AERD using density gradient centrifugation. For some experiments, cells were further separated into monocytes (CD14^+), neutrophils (CD16^+) or eosinophils. CD14^+ monocytes were differentiated into macrophages by culture for 6-8 days in the presence of GM-CSF and TGFbl. In most experiments, cells were treated with Hpb proteins at a concentration of 10 μg protein/ml.
(§4) Mediator analysis in cell supernatants (+/−Hpb proteins) was performed by immunoassay for individual mediators (e.g. LTs, PGE2 or IL-10) or LC-MS/MS or Multiplex cytokine analysis for overall mediator profiles.
Hpb proteins (e.g., total somatic homogenate of Hpb L3 larvae) broadly modulate mediator profiles of human myeloid cells.
as §2

Test [4] has as its system MDM from AERD patients. As to the kind of experiment: Eicosanoid production by MDM from AERD patients. The class given is cell-based, human. The source says:
To validate the efficacy of HpbE in a relevant therapeutic indication, the inventors generated MDM from AERD patients and studied the effects of HpbE and FP on the mediator output.
(§5) Human monocyte derived macrophages (MDM) were isolated, cultured and stimulated as described herein, e.g. in Example 3.
(§6) Eicosanoids or cytokines were quantified by LC-MS/MS or immunoassays as described herein, e.g. in Example 3.

Test [5] has as its system human monocyte derived macrophages (MDM). As to the kind of experiment: Mediator (eicosanoid, cytokine) production by human monocyte derived macrophages. The format is cell-based. The protocol:
as §3, §4
In order to study the effect of Hpb proteins on human macrophages, human monocyte derived macrophages (MDM) were stimulated with A23187 after 16 hrs. treatment with helminth proteins (e.g., total somatic homogenate of Hpb L3 larvae).
as §5, §6, §1, §2

The mark [6] stands for this setting: purified recombinant His-tagged protein.

For the compound `CC(C)(C)c1ccc(S(=O)(=O)/C=C/C#N)cc1` [BAY 11-7085], in test [1] (HpbE-treated human MDM, inhibition of NFκβ, 5 μM), the “PGE2, IL-10 and IL-1β production as well as gene expression of PGE2-synthetic enzymes and IL-10” value is reported as “significantly reduced”.

Consider `Oc1c(Cl)cc(Cl)cc1Sc1cc(Cl)cc(Cl)c1O` [Bithionol], for which, in test [1] (inhibitor of GDH, 20 μM), the “HpbE-triggered induction of PGE2 and IL-10” value is “reduced”.

For the compound `CS(=O)(=O)c1ccc(-c2noc(C(F)(F)F)c2-c2ccccc2)cc1` [CAY10404], in test [1] (COX inhibitors), the “HpbE-triggered COX-2 expression” value is “reduced” and the “suppression of the 5-LOX pathway” value is given as “remained largely unaffected”.

Take `CC(C)(O)c1ccccc1CC[C@@H](SCC1(CC(=O)O)CC1)c1cccc(/C=C/c2ccc3ccc(Cl)cc3n2)c1` [Montelukast]: the “reduction of granulocyte chemotaxis in response to nasal polyp secretions” value in test [2] amounted to 10%.

On to `NC(=O)c1ccc(N(C(N)=O)c2c(F)cccc2F)nc1-c1ccc(F)cc1F` [VX-702], for which, in test [1] (p38 inhibitor), the “induction of IL-10, IL-1R and PGE2-synthetic enzymes (PTGS2 and PTGES)” value is given as “abrogated”.

Consider `CCC(=O)O[C@]1(C(=O)SCF)[C@H](C)C[C@H]2[C@@H]3C[C@H](F)C4=CC(=O)C=C[C@]4(C)[C@@]3(F)[C@@H](O)C[C@@]21C` [fluticasone propionate], for which the “pro-inflammatory arachidonic acid (AA) and linoleic acid (LA) metabolites” value in test [3] is listed as “reduce”. Further, the “eicosanoid output of MDM from AERD patients” value in test [4] is given as “no effects”. The “reduction of granulocyte chemotaxis in response to nasal polyp secretions” value in test [2] is on record as “failed to reduce chemotactic responses”. Besides, in test [2] (pre-treatment of AERD granulocytes), the “cell recruitment: migration of AERD patient granulocytes towards nasal polyp secretions ex vivo” value is on record as “not achieved”. Further, in test [5] (weak induction of PGE2), the “eicosanoid output in MDM from healthy individuals” value is on record as “only minor effects”.

Take `COc1ccc2c(c1)c(CC(=O)O)c(C)n2C(=O)c1ccc(Cl)cc1` [indomethacin]: in test [1] (COX inhibitors), the “HpbE-triggered COX-2 expression” value is given as “reduced” and the “suppression of the 5-LOX pathway” value is recorded as “remained largely unaffected”. The “induction of IL-10, IL-1β and PTGES” value in test [1] (COX inhibitors, CAY10404 10 μM) is given as “reduced”.

“Recombinant Hpb GDH: Recombinant His-tagged Hpb glutamate dehydrogenase (UniProtKB A0A183FP08, SEQ ID NO: 1) expressed in E. coli”: in test [5] (setting [6]), the “PGE2 and IL-10 production by human macrophages” value is recorded as “induce”; the “generation of pro-inflammatory cysLTs by human macrophages” value is reported as “reduce”.

In the case of acriflavine, the “HpbE-induced expression of IL-10, IL-1β and COX pathway enzymes” value in test [1] (pharmacological inhibitor of HIF-1α) is listed as “attenuated”.

The values are drawn from patent US20210170000A1, “Larval preparation of Heligmosomoides polygyrus bakeri as well as methods of making it and uses thereof” (Helmholtz Zentrum München Deutsches Forschungszentrum für …, priority 2018, published 2021).
